Data set [1] is described as follows: in vivo. The settings on record: Sprague-Dawley, rat, po, 39.2 g/kg/day; for Cmax: C max; for Tmax: T max.
Description: (§1) In the PK study, 12 SD rats were divided into model group (MG group) and model + polysaccharide group (MPS group). Rats in the MPS group were given PS (9.8 g crude drug/kg/day) by oral administration, while rats in the MG group received the same amount of saline. After continuous administration for 21 days, rats in both groups were given SM (39.2 g crude drug/kg/day), and two groups of rats were subjected to a PK study.
(§2) The supernatant was collected and dried with N2, redissolved with 100 μL methanol, and centrifuged again after 10 min centrifugation at 4 °C, 13000 rpm. Then the supernatant was collected for UPLC-MS /MS analysis.
(§3) The Shimadzu UPLC-MS/MS system was used for the PK study. […] The multiple reaction monitoring (MRM) mode was used both in positive and negative mode. The MS parameters were as follows: flow rate of heating gas 10 L/min, flow rate of drying gas 10 L/min, flow rate of atomizing gas 3 L/min, interfacial temperature 300 ℃, DL temperature 250 ℃.
(§4) Separation was performed using a Waters ACQUITY UPLC BEH C18 column (2.1 mm × 100 mm, 1.7 μm). The mobile phase was 0.1% formic acid water (v/v) (A) and acetonitrile (B).
The nature of data set [2]: PK study of SM components in plasma of AIA rats by UPLC-MS/MS (MG vs MPS group). The settings on record: for Absorption under the intervention of PS: MPS vs MG group; for Cmax: C max; for Tmax: T max.
Description: as §1, §2, §3, §4
For data set [3] the following is noted: rat, in vivo.
Description: as §1, §2, §3, §4
Where [4] appears, read: MG group: AIA rats, saline 21 days, then oral SM 39.2 g crude drug/kg, plasma, mean ± SEM.
[5] abbreviates: MPS group: AIA rats, oral PS 9.8 g crude drug/kg/day 21 days, then oral SM 39.2 g crude drug/kg, plasma, mean ± SEM.
Where [6] appears, read: t 1/2, MG group: AIA rats, saline 21 days, then oral SM 39.2 g crude drug/kg, plasma, mean ± SEM.
Setting [7] is: t 1/2, MPS group: AIA rats, oral PS 9.8 g crude drug/kg/day 21 days, then oral SM 39.2 g crude drug/kg, plasma, mean ± SEM.
Setting [8] is: MPS group compared with the MG group, AIA rats.
Setting [9] is: Sprague-Dawley, po, 39.2 g/kg/day.
Setting [10] is: Sprague-Dawley, rat, plasma, po, 39.2 g/kg/day, MG group: AIA rats, saline 21 days, then oral SM 39.2 g crude drug/kg, plasma, mean ± SEM.
[11] abbreviates: Sprague-Dawley, rat, plasma, po, 39.2 g/kg/day, MPS group: AIA rats, oral PS 9.8 g crude drug/kg/day 21 days, then oral SM 39.2 g crude drug/kg, plasma, mean ± SEM.

Read-outs that look alike come from different tables or passages of the source.

With `CN[C@@H](C)[C@H](O)c1ccccc1` [Ephedrine], in data set [1] (setting [4]), the AUC 0-t came to 1720 ± 96.8 ng·h/mL, the AUC(0-inf) was determined as 1750 ± 93.6 ng·h/mL and the highest level (Cmax) was 674 ± 137 ng/mL. Besides, in data set [1] (setting [5]), the total exposure AUC(0-inf) amounted to 1580 ± 228 ng·h/mL, the peak level (Cmax) was 662 ± 149 ng/mL and the Tmax amounted to 0.333 ± 0.118 h. For the same compound, in data set [1] (setting [6]), the half-life is 1.85 ± 0.273 h. The half-life in data set [1] (setting [7]) is 1.74 ± 0.108 h. In addition, the T max in data set [2] (setting [4]) is 0.250 ± 0.001 h. The “AUC 0-t” value in data set [2] (setting [5]) came to 1559.029 ± 227.025 ng·h/mL.

Regarding `O=C1C[C@@H](c2ccc(O[C@@H]3O[C@H](CO)[C@@H](O)[C@H](O)[C@H]3O)cc2)Oc2cc(O)ccc21` [Liquiritin], in data set [1] (setting [4]), the AUC 0-t was found to be 300 ± 52.8 ng·h/mL, the total exposure AUC(0-inf) came out at 307 ± 53.9 ng·h/mL, the highest level (Cmax) was 126 ± 18.5 ng/mL and the Tmax stood at 0.167 ± 0.083 h. In addition, the time of peak concentration (Tmax) in data set [1] (setting [5]) was 0.083 ± 0.001 h. The same compound had a half-life in data set [1] (setting [6]) of 2.09 ± 0.132 h. Moreover, the half-life in data set [1] (setting [7]) is 3.3 ± 0.429 h. In data set [2] (setting [8]), the “Change of C max after oral PS” value is “significantly increased”. In data set [2] (setting [5]), the “AUC 0-t” value stood at 321.663 ± 49.723 ng·h/mL, the “AUC 0-∞” value turned out to be 339.781 ± 52.584 ng·h/mL and the C max came to 190.023 ± 19.153 ng/mL. In data set [2] (AIA rats), the “Absorption under the intervention of PS” value is recorded as “increased”.

Take `COc1ccc(-c2coc3cc(O)ccc3c2=O)cc1O` [Calycosin]: in data set [1] (setting [4]), the AUC 0-t came out at 12.3 ± 1.06 ng·h/mL, the AUC(0-inf) is 14.3 ± 1.19 ng·h/mL, the concentration peaked (Cmax) at 8.48 ± 2.43 ng/mL and the Tmax is 0.083 ± 0.001 h. In data set [1] (setting [5]), the AUC 0-t worked out at 12.4 ± 0.972 ng·h/mL, the AUC(0-inf) worked out at 13.6 ± 0.642 ng·h/mL, the highest concentration (Cmax) turned out to be 6.61 ± 1.44 ng/mL and the Tmax was found to be 0.083 ± 0.001 h. This compound gave a half-life in data set [1] (setting [6]) of 4.94 ± 0.315 h. Besides, the half-life in data set [1] (setting [7]) is 3.53 ± 0.666 h.

As to `C[C@@]12C[C@@]3(O)O[C@@H](O1)[C@]1(COC(=O)c4ccccc4)[C@H]3C[C@@]12O[C@@H]1O[C@H](COC(=O)c2ccccc2)[C@@H](O)[C@H](O)[C@H]1O` [Benzoylpaeoniflorin], in data set [1] (setting [4]), the AUC 0-t was found to be 27.9 ± 5.4 ng·h/mL, the area under the curve AUC(0-inf) is 30.6 ± 6.08 ng·h/mL, the Cmax was determined as 14.8 ± 2.66 ng/mL and the time to peak (Tmax) was 0.139 ± 0.079 h. Besides, in data set [1] (setting [5]), the AUC 0-t amounted to 31.6 ± 6.74 ng·h/mL, the area under the curve AUC(0-inf) worked out at 37.9 ± 9.82 ng·h/mL, the Cmax stood at 24.3 ± 4 ng/mL and the time of peak concentration (Tmax) stood at 0.083 ± 0.001 h. Besides, the half-life in data set [1] (setting [6]) is 3.59 ± 0.489 h. The same compound had a half-life in data set [1] (setting [7]) of 6.96 ± 2.27 h. Further, the “Change of C max after oral PS” value in data set [2] (setting [8]) is on record as “significantly increased”. For the same compound, the “Absorption under the intervention of PS” value in data set [2] (AIA rats) is on record as “increased”.

With `O=C(/C=C/c1ccc(O[C@@H]2O[C@H](CO)[C@@H](O)[C@H](O)[C@H]2O)cc1)c1ccc(O)cc1O` [Isoliquiritin], in data set [1] (setting [4]), the AUC 0-t was 23.3 ± 0.956 ng·h/mL, the area under the curve AUC(0-inf) came to 30.8 ± 2.93 ng·h/mL, the Cmax amounted to 13.6 ± 1.06 ng/mL and the Tmax came to 0.194 ± 0.079 h. In addition, in data set [1] (setting [5]), the AUC 0-t amounted to 21.9 ± 1.76 ng·h/mL, the area under the curve AUC(0-inf) amounted to 33.1 ± 3.19 ng·h/mL, the concentration peaked (Cmax) at 14.2 ± 1.55 ng/mL and the Tmax was 0.111 ± 0.062 h. In data set [1] (setting [6]), the half-life is 5.85 ± 2.02 h. For the same compound, in data set [1] (setting [7]), the half-life was 7.61 ± 1.85 h.

Consider `C=C1[C@H]2C[C@@]3([C@@H]1O)[C@@H](CC2=O)[C@]12[C@@H]4C[C@H]3[C@H]1N(CC)C[C@]4(C)CC[C@@H]2O` [Songorine], for which, in data set [3] (setting [9]), the “AUC 0-t” value was determined as 80.730 ± 5.544 ng·h/mL, the “AUC 0-∞” value is 84.255 ± 5.364 ng·h/mL, the C max worked out at 17.665 ± 1.910 ng/mL and the T max is given as 0.917 ± 0.773 h. Further, the “t 1/2” value in data set [3] (setting [9]) is 2.522 ± 0.269 h. Also, the “Absorption under the intervention of PS” value in data set [3] is “increased”. In data set [3] (po), the “Change of AUC 0-t after oral PS” value is “increased” and the “Change of AUC 0-∞ after oral PS” value is given as “increased”. Besides, in data set [1], the AUC 0-t worked out at 60.2 ± 6.5 ng·h/mL, the area under the curve AUC(0-inf) was determined as 64.6 ± 6.04 ng·h/mL, the concentration peaked (Cmax) at 14 ± 2.32 ng/mL and the time of peak concentration (Tmax) came to 0.667 ± 0.236 h. In data set [1] (t 1/2), this compound had a half-life of 2.64 ± 0.461 h.

With `O=C(/C=C/c1ccc(O)cc1)c1ccc(O)cc1O` [Isoliquiritigenin], the “Change of C max after oral PS” value in data set [2] (setting [8]) is “significantly increased”. Also, the “Absorption under the intervention of PS” value in data set [2] (AIA rats) is given as “increased”. For the same compound, the AUC 0-t in data set [2] (Sprague-Dawley, rat, plasma, po, 39.2 g/kg/day, AUC 0-t, MG group: AIA rats, saline 21 days, then oral SM 39.2 g crude drug/kg, plasma, mean ± SEM) was 8.76 ± 1.42 ng·h/mL; in data set [2] (Sprague-Dawley, rat, plasma, po, 39.2 g/kg/day, AUC 0-t, MPS group: AIA rats, oral PS 9.8 g crude drug/kg/day 21 days, then oral SM 39.2 g crude drug/kg, plasma, mean ± SEM) it was 9.47 ± 1.45 ng·h/mL. In addition, the AUC(0-inf) in data set [2] (setting [10]) stood at 9.61 ± 1.6 ng·h/mL; in data set [2] (setting [11]) it was 10.5 ± 1.27 ng·h/mL. Further, the Cmax in data set [2] (setting [10]) was found to be 4 ± 0.545 ng/mL; in data set [2] (setting [11]), 5.42 ± 0.422 ng/mL. The values for the time to peak (Tmax) in data set [2] (setting [10]) and in data set [2] (setting [11]) were 0.083 ± 0.001 h and 0.167 ± 0.083 h, respectively. Also, the half-life in data set [2] (Sprague-Dawley, rat, plasma, po, 39.2 g/kg/day, t 1/2, MG group: AIA rats, saline 21 days, then oral SM 39.2 g crude drug/kg, plasma, mean ± SEM) was 3.12 ± 0.571 h; in data set [2] (Sprague-Dawley, rat, plasma, po, 39.2 g/kg/day, t 1/2, MPS group: AIA rats, oral PS 9.8 g crude drug/kg/day 21 days, then oral SM 39.2 g crude drug/kg, plasma, mean ± SEM), 3.87 ± 0.889 h.

Take `C[C@@]12C[C@@]3(O)O[C@@H](O1)[C@]1(COC(=O)c4ccccc4)[C@H]3C[C@@]12O[C@@H]1O[C@H](CO)[C@@H](O)[C@H](O)[C@H]1O` [Paeoniflorin]: in data set [1] (setting [4]), the AUC 0-t turned out to be 2540 ± 95.9 ng·h/mL, the total exposure AUC(0-inf) was 2460 ± 223 ng·h/mL, the maximum concentration (Cmax) was 1920 ± 225 ng/mL and the time to peak (Tmax) is 0.438 ± 0.108 h. In addition, in data set [1] (setting [5]), the AUC 0-t worked out at 2870 ± 71.7 ng·h/mL, the area under the curve AUC(0-inf) was 2900 ± 68.7 ng·h/mL, the maximum concentration (Cmax) was 2060 ± 352 ng/mL and the Tmax stood at 0.396 ± 0.18 h. The compound also gave a half-life in data set [1] (setting [6]) of 2.13 ± 0.102 h. In data set [1] (setting [7]), this compound had a half-life of 1.99 ± 0.126 h. Besides, in data set [2] (setting [8]), the “Change of AUC 0-t after oral PS” value was “increased” and the “Change of AUC 0-∞ after oral PS” value is listed as “increased”. Further, the “Absorption under the intervention of PS” value in data set [2] (AIA rats) was “increased”.
